Results on two molecules are retold here after paper PMC4133117 (Biochemical pharmacology, 2014).

The target of series [1] is T1, ABCB1 (Homo sapiens, UniProt P08183). As to the kind of experiment: vanadate-sensitive ATPase stimulation in crude membranes. Format: biochemical.
Series [2] has as its target T1, ABCB1.

T1 sequence (P08183 whole entry): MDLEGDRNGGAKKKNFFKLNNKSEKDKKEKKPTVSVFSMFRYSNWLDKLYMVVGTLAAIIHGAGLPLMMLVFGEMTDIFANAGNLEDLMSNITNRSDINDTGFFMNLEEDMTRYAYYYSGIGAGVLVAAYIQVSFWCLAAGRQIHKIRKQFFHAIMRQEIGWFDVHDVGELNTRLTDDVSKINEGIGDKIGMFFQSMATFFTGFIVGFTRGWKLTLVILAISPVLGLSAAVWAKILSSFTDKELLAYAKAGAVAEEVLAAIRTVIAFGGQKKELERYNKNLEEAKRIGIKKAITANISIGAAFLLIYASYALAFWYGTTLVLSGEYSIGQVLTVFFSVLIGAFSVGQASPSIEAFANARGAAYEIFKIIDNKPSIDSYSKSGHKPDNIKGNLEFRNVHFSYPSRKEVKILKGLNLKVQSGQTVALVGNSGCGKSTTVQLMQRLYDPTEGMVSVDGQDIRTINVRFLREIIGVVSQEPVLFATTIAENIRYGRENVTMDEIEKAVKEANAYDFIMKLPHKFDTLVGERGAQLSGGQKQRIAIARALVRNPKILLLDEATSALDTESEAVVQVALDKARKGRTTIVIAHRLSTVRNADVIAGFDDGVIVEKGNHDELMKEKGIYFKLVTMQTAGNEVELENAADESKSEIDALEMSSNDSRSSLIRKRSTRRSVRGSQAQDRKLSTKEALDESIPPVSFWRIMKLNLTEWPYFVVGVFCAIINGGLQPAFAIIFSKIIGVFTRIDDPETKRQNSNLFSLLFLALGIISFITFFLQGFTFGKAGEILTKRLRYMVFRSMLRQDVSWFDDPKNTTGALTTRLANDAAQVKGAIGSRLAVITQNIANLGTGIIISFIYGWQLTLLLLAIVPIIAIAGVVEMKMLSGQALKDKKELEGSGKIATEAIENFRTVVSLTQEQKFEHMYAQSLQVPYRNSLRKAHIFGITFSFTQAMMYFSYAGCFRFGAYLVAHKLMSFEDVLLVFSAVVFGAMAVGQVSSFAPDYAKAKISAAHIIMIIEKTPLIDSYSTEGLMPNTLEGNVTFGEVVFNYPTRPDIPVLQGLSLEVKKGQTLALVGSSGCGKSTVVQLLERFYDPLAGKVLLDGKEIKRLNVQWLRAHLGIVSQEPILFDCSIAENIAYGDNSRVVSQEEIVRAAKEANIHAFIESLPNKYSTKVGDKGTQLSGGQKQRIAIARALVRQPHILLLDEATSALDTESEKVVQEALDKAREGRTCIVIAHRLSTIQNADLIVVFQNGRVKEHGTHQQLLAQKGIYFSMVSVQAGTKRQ

`CC1(C)CNc2cc(NC(=O)c3cccnc3NCc3ccncc3)ccc21` [motesanib]: the EC50 (in general, the concentration giving half of the maximal effect) at ABCB1 [1] is 893 nM. In the case of `CC(=O)O[C@H]1C(=O)[C@@]2(C)[C@H]([C@H](OC(=O)c3ccccc3)[C@]3(O)C[C@H](OC(=O)[C@H](O)[C@@H](NC(=O)c4ccccc4)c4ccccc4)C(C)=C1C3(C)C)[C@]1(OC(C)=O)CO[C@@H]1C[C@@H]2O` [paclitaxel], the “radiolabelled efflux assay in KB-C2 vs KB-3-1 cells” value at ABCB1 [2] is “significantly lower compared to that of parental KB-3-1 cells due to active transport of the [^3H]-paclitaxel by the ABCB1 transporter”.
